Reference: patent US12599676B2, “Cytotoxic imidazo[1,2-A]pyridine compounds and their use in therapy” (MyricX Pharma Limited, priority 2022, dated 2026)

B1: ifinatamab-DXd: ifinatamab-deruxtecan, comparator ADC in prostate xenograft models (conjugate, chains of the INN, looked up)
VH: QVQLVQSGAEVKKPGSSVKVSCKASGYTFTNYVMHWVRQAPGQGLEWMGYINPYNDDVKYNEKFKGRVTITADESTSTAYMELSSLRSEDTAVYYCARWGYYGSPLYYFDYWGQGTLVTVSS
VL: EIVLTQSPATLSLSPGERATLSCRASSRLIYMHWYQQKPGQAPRPLIYATSNLASGIPARFSGSGSGTDFTLTISSLEPEDFAVYYCQQWNSNPPTFGQGTKVEIK
modifications: deruxtecan payload
notes: ifinatamab-deruxtecan, comparator ADC in prostate xenograft models

Tests used:
[1] = tested on: SU-DHL-10 cell line (human B cell lymphoma); test: Cell cytotoxicity in SU-DHL-10 cell line (CellTiter-Glo); format: cell-based; details: Homo sapiens, SU-DHL10, 72 h, 72 h treatment, CTG
Method: Certain Example compounds of the invention and Comparator Compound 1 were tested in the SU-DHL-10 cell line (human B cell lymphoma). Compounds which show efficacy in this assay are expected to be useful as agents for treating or preventing hyperproliferative disorders such as cancer.
(§1) Cells were seeded in 96-well microplates and treated with compounds or cisplatin (as a positive control) at 9 increasing concentrations in technical triplicate. […] On day 1, 90 μL of various cell suspensions with the number of cells ranging from 5000-8000 cells/well were seeded into wells of a 96-well plate (Corning). The number of cells to be seeded was previously determined. • 2. All 96-wells plates with cells were placed in an incubator overnight at 37° C. with 5% CO2. • 3. On day 2, cells were observed under a microscope ensuring the cells treated with vehicle control were in good condition. • 4. A dilution series of the test compounds and cisplatin were prepared at 10× the final concentrations required. 10 μL/well of 10× compound solution was added to the corresponding plates. The final volume was 100 μL/well for all the plates. Final DMSO concentration was 0.1%. • 5. On day 5 (after 72 hours of incubation), 50 μL of CTG reagent was added to each well. • 6. Contents were mixed for 5 minutes on an orbital shaker to facilitate cell lysis. • 7. The plate was allowed to incubate at room temperature for 10 minutes to stabilize luminescent signals.
Luminescence was recorded using an EnVision Multi Label Reader. Data analysis was performed using GraphPad Prism 8.0.
To calculate IC50, a concentration-response curve was generated using a nonlinear regression model with a sigmoidal concentration response. The formula for calculating the % of viable cells was shown below, and the IC50s are automatically generated by GraphPad Prism 8.0.
(LumTest article=luminescence in test article treated well; LumNone treated=luminescence in vehicle treated well; LumMedium control=luminescence in a well containing only medium and no cells; LumNone treated-LumMedium control was set as 100%)

Caco-2 cells = test: Caco-2 cell permeability assay; format: in vitro ADME; details: apical to basal Papp, 2 μM, pH 7.4, 2.5 h
Method: (§2) Certain Example compounds and Comparative Example 1 were tested for their apical to basal (AB) and basal to apical (BA) permeability in Caco-2 cells.
(§3) Cell Culture: Caco-2 cells were grown for 10 days in 96-well plates in HBSS buffer containing 10 mM HEPES. Both the apical and basal pH was buffered at pH 7.4. The apical/basal volumes were 75 μl and 250 μl respectively. The incubation time was 2.5 h at 37° C. (without shaking) under 5% CO2 & 95% relative humidity.
(§4) Cell Seeding: Cells were seeded at a density of 18750 cells/well (membrane area=0.0804 cm^2) in a 96 well plate.
(§5) AB Assay: 75 μl of cell suspension was added at a density 2.5×10^5 cells/ml to the apical wells. 40 ml media was added to the feeder tray. The plates were placed in the incubator (37° C., 5% CO2 and controlled humidity). The Caco-2 cells were grown for 10 days with a media change on every alternate day.
(§6) BA Assay: 25 μl of cell suspension was added at a density of 7.5×10^5 cells/ml to the bottom side (keeping the plate upside down) of apical wells. The plate (upside down position) was placed in the incubator (37° C., 5% CO2 and 95% Relative humidity) for 2 h. The plate was turned right side up. 75 μl media was added to the apical wells and 40 ml media to the feeder tray.
(§7) Permeablity Assay: The apical and basal wells were washed with buffer (pH 7.4) and 250 μl buffer was added to the wells of the basal plate. 75 μl of compound solution (2 μM, dissolved in water with 1% DMSO) was transferred to the apical wells (n=2). The apical plate was placed onto the basal plate. The lid was placed on to prevent evaporation. The assembly was incubated at 37° C. for 2.5 h (without shaking) under 5% CO2 and 95% relative humidity. After incubation the apical plate was separated from the basal plate. Aliquots were taken out from the acceptor and donor wells, diluted and quantified using LC-MS/MS along with initial donor samples.
(§8) Membrane Integrity Test: Solution in the apical wells was discarded by inverting the plate and soaking onto tissue paper. 250 μl buffer (pH 7.4) was added to each well of basal plate and 75 μl of Lucifer Yellow (LY; 0.1 mg/ml) in buffer (pH 7.4) to the wells of apical plate. The apical plate was placed onto the basal plate and the lid used to prevent evaporation. The assembly was incubated at 37° C. for 1 h (without shaking) under 5% CO2 and 95% relative humidity. The apical plate was separated from the basal plate. Fluorescence (Ex: 432 nm, Em: 530 nm) of aliquots (100 ul) was measured from basal wells. Fluorescence of 100 μl buffer (pH 7.4) and 100 μl LY(0.1 mg/ml) was also measured. Wells having more than 1% fluorescence intensity with respect to 0.1 mg/ml LY were considered non-integrated membrane. Such wells, if any, were not considered for permeability calculation.
(§9) Calculation: Drug was detected and quantified by LC-MS/MS. Data generated took the form of an apparent permeability (Papp) value. Papp=[Va/(AreaxTime)]×(LC-MS Area of Acceptor sample×Sample dilution factor/LC-MS Area of Initial Donor). Va=Volume of Acceptor Well (in ml)=0.25, Vd=Volume of Donor Well (in ml)=0.075, Area=Surface area of the membrane (cm2)=0.0804, Time=Time of incubation (sec)=9000 Results: The results of the assay are shown in Table 3 below.

[2] = Caco-2 cell permeability assay; format: in vitro ADME; details: human, Caco-2, pH 7.4, basal to apical Papp, pH 7.4, 2.5 h
Method: as §2, §3, §4, §5, §6, §7, §8, §9

[3] = tested on: LYXFDLBC2835 (patient-derived xenograft lymphoma); test: Cell cytotoxicity CellTiter-Glo, LYXFDLBC2835; format: cell-based
Method: as §1
(§10) The effects of Comparator Compound 1 and certain Example compounds on the viability of various cell lines (LYXFDLBC2835, LYXFDLBC4009 and LYXFDLBC411 (patient-derived xenograft lymphoma), HT1080 (human fibrosarcoma), CA46 (human B cell lymphoma), RKO (human colon carcinoma), NCI-H1703 (human lung squamous cell carcinoma), MX-1 (human breast carcinoma), DU4475 (human breast carcinoma), LU2511 (human lung large cell undifferentiated carcinoma), LU0884 (human lung squamous cell carcinoma)), Panc-1 (human pancreatic carcinoma), MCF-7 (human breast cancer), SW480 (human colon adenocarcinoma) and HCC1806 (human breast ductal carcinoma) were performed using the standard CellTiter-Glo assay (CTG, Promega) as described in Biological Example 2. Compounds which show efficacy in these assays are expected to be useful as agents for treating or preventing hyperproliferative disorders such as cancer.

[4] = tested on: LYXFDLBC4113 (patient-derived xenograft lymphoma); test: Cell cytotoxicity CellTiter-Glo, LYXFDLBC4113; format: cell-based
Method: as §1, §10

DOHH-2 tumor cells = test: Subcutaneous xenograft DOHH-2 lymphoma model; format: in vivo, CB17/SCID mice; details: oral dosing 12.5 or 25 mg/kg once a day for 9 days
Method: The in vivo efficacy of certain Example compounds was assessed in a subcutaneous xenograft DOHH-2 Lymphoma Model using 10 female 6-8 week old CB17/SCID Mice. Each mouse was inoculated subcutaneously at the right front region with DOHH-2 tumor cells (5×10^6) in 0.1 ml of PBS mixed with matrigel (1:1 PBS:matrigel) for tumor development. The test compound administration started once the mean tumor size reached approximately 100-150 mm^3.
Compounds were administered either IP (vehicle 10 mM sodium phosphate+0.2% Tween-80 (pH7.4) or orally (vehicle 15 Na2HPO4 buffer (10 mM) (pH 4.5)+0.2% tween 80). Tumor volumes were measured in two dimensions using a caliper, and the volume expressed in mm^3 using the formula: V=(L×W×W)/2, where V is tumor volume, L is tumor length (the longest tumor dimension) and W is tumor width (the longest tumor dimension perpendicular to L).
Mice were dosed with Example 21 orally (12.5 or 25 mg/kg) once a day for 9 consecutive days (FIG. 3). Example 5 was dosed intraperitoneally (7 or 20 mg/kg) in a cycle consisting of administration QD for three days followed by a three day no-dosing period followed by QD dosing for a further three days (FIG. 4). Example 12 was dosed intraperitoneally (0.7 or 2 mg/kg) in a cycle consisting of administration QD for three days followed by a three day no-dosing period followed by QD dosing for a further three days (FIG. 5). In a separate study Example 12 was dosed at […] in a cycle consisting of administration QD for two days followed by either four or six day no-dosing period, and this cycle was repeated three times (FIG. 6).

[5] = tested on: LYXFDLBC4009 (patient-derived xenograft lymphoma); test: Cell cytotoxicity CellTiter-Glo, LYXFDLBC4009; format: cell-based
Method: as §1, §10

LNCaP tumour cells = test: LNCaP prostate cancer xenograft model; format: in vivo, NOD SCID mice; details: for Day 28 tumour volume (mm^3, mean ± SEM) / Tumour growth inhibition (TGI, %): IV, Q7D (×3); for Tumour growth inhibition (TGI, %): day 28
Description: A total of 84 male NOD SCID mice aged 5-8 weeks and weighing 25-30 g were used for the study.

VcaP tumour cells = test: VCaP prostate cancer xenograft model; format: in vivo, CB17/SCID mice
Description: All mice received two doses of test agent, on Study Day 1 and Study Day 8. The study was terminated on Study Day 30.

JIMT-1 tumour cells = test: JIMT-1 breast cancer xenograft model; format: in vivo, NOD/SCID mice
Method: 80 mice were assigned to 8 treatment groups when tumour volumes averaged ˜160.66 mm^3 on Study Day 0. Dosing commenced the following day and all animals were dosed intravenously with ADC Example 3, sacituzumab govitecan or unconjugated sacituzumab. The study was terminated on the Study Day 60.

[6] = 2.5 mg/kg IV QW × 2 weeks (Group 5 also got ADC Example 3 5 mg/kg on Day 27)
[7] = 5 mg/kg IV QW × 2 weeks (Group 4 also got ADC Example 3 5 mg/kg on Day 27)

Molecule	IC50 [1]	LNCaP tumour volume compared to the vehicle control (LNCaP tumour cells; 5 mg/kg)	Day 28 tumour volume (mm^3, mean ± SEM) (LNCaP tumour cells; 5 mg/kg)	Tumour growth inhibition (TGI, %) (LNCaP tumour cells; 5 mg/kg)	LNCaP tumour volume compared to the vehicle control (LNCaP tumour cells; 10 mg/kg)	Day 28 tumour volume (mm^3, mean ± SEM) (LNCaP tumour cells; 10 mg/kg)	Tumour growth inhibition (TGI, %) (LNCaP tumour cells; 10 mg/kg)	ΔTGI (Study Day 17) (VcaP tumour cells; 2.5 mg/kg IV QW × 2 weeks)	ΔTGI (Study Day 17) (VcaP tumour cells; 5 mg/kg IV QW × 2 weeks)	ΔTGI (Study Day 28) (JIMT-1 tumour cells; [6])	ΔTGI (Study Day 28) (JIMT-1 tumour cells; [7])	also measured
CNCc1cnc2ccc(-c3ccc(F)cc3OCCc3c(C(C)(C)O)nn(C)c3C)cn12 [Example 18, 2-(4-(2-(5-fluoro-2-(3-((methylamino)methyl)imidazo[1,2-a]pyridin-6-yl)phenoxy)ethyl)-1,5-dimethyl-1H-pyrazol-3-yl)propan-2-ol]	0.0053 µM	–	–	–	–	–	–	–	–	–	–	Caco-2 A-B (Caco-2 cells): 0.3 ×10⁻⁶ cm/s; Papp B→A at 2.5 h, 2 μM [2]: 211 nm/s
CNCc1cnc2ccc(-c3ccc(F)c(F)c3OCCc3c(C(C)(C)O)nn(C)c3C)cn12 [Example 21, 2-(4-(2-(2,3-difluoro-6-(3-((methylamino)methyl)imidazo[1,2-a]pyridin-6-yl)phenoxy)ethyl)-1,5-dimethyl-1H-pyrazol-3-yl)propan-2-ol]	0.0004 µM	–	–	–	–	–	–	–	–	–	–	IC50 [3]: 0.054 µM; IC50 [4]: 0.023 µM; tumour volume compared to vehicle (DOHH-2 tumor cells): significant reduction in tumour volume or reduced growth in tumour volume; IC50 [5]: 0.035 µM
ifinatamab	–	no significant effect	551.4 ± 73.1 mm^3	30.6%	no significant effect	666.56 ± 103.2 mm^3	13.0%	8.47%	12.44%	–	–	tumour volumes compared to vehicle alone (Group 1) (VcaP tumour cells; all concentrations tested (ADC Example 4: 2.5, 5, 10 mg/kg; unconjugated ifinatamab: 5 and 2.5 mg/kg)): no significant difference
sacituzumab	–	–	–	–	–	–	–	–	–	12.11%	14.44%	tumour volume compared to vehicle alone (Group 1) (JIMT-1 tumour cells; 2.5 mg/kg (Group 3), p=0.0586): no significant difference; tumour volume compared to vehicle alone (Group 1) (JIMT-1 tumour cells; 5 mg/kg (Group 2), p=0.0028): significant decrease; tumour volume, 5 mg/kg (Group 2) versus 2.5 mg/kg (Group 3) (JIMT-1 tumour cells; p=0.9837): no significant difference
sacituzumab govitecan	–	–	–	–	–	–	–	–	–	13.13%	23.39%	tumour volume compared to Groups 2 and 3 (unconjugated sacituzumab) (JIMT-1 tumour cells; 2.5 mg/kg (Group 5)): no significant difference; tumour volume compared to unconjugated sacituzumab Group 2 (5 mg/kg) and Group 3 (2.5 mg/kg) (JIMT-1 tumour cells; 5 mg/kg (Group 4)): significant decrease; tumour volumes compared to vehicle alone (Group 1) (JIMT-1 tumour cells; all concentrations tested (ADC Example 3: 2.5, 5, 10 mg/kg; sacituzumab govitecan: 5 and 2.5 mg/kg)): significant decrease
B1	–	slowed the growth of LNCaP tumours to a lesser extent	364.6 ± 51.7 mm^3	58.8%	significantly reduced the mean volume	259.5 ± 50.3 mm^3	75.0%	5.24%	2.86%	–	–	tumour volume compared to Groups 2, 3 and 4 (VcaP tumour cells; 2.5 mg/kg (Group 5)): no significant difference; tumour volume compared to vehicle alone (Group 1) (VcaP tumour cells; 2.5 mg/kg (Group 5)): no significant difference; tumour volume compared to unconjugated ifinatamab 5 mg/kg and 2.5 mg/kg (VcaP tumour cells; 5 mg/kg (Group 4)): significantly higher tumour volume; tumour volume compared to vehicle alone (Group 1) (VcaP tumour cells; 5 mg/kg (Group 4)): significantly higher tumour volume
